PMC4411097, “Pachymic Acid Inhibits Growth and Induces Apoptosis of Pancreatic Cancer In Vitro and In Vivo by Targeting ER Stress” (PLoS ONE, 2015)

What was measured:
[1] = tested on: ER stress response proteins in PANC-1 cells; test: Western blot of ER stress response proteins; type: cell-based, human; conditions: PANC-1, TUDCA 200 μM with PA 30 μM, 24 h
Protocol: (§1) PANC-1, MIA PaCa-2 cells were treated with PA (0–30 μM) for 10 min, 30 min or 24 h, respectively. Whole protein extracts isolated from cells and tumor tissues were prepared and western blot analysis with anti-cleaved PARP, anti-XBP-1s, anti-ATF6, anti-ATF4, anti-Hsp70, anti-CHOP, anti-phospho-eIF2α or anti-eIF2α antibodies were performed as previously described. Western blots were quantified with HP-Scanjet 550c and analyzed by UN-SCAN-IT software (Silk Scientific, Orem, UT). Three independent experiments were done for all the immunoblot studies and quantitative data composed of all the experiments with statistical analysis were added below the representative blot image.

[2] = tested on: ER stress response proteins in MIA PaCa-2 cells; test: Western blot of ER stress response proteins; type: cell-based, human; conditions: MIA PaCa-2, TUDCA 200 μM with PA 30 μM, 24 h
Protocol: as §1

[3] = tested on: PARP cleavage (c-PARP) in PANC-1 cells; test: Western blot for PARP cleavage (c-PARP); type: cell-based, human; conditions: PANC-1, TUDCA 200 μM with PA 30 μM, 24 h
Protocol: (§2) Apoptosis induction in PA-treated cells was assessed by quantitation of cytoplasmic histone-associated DNA fragments and western blotting for PARP cleavage (c-PARP). The Cell Death Detection ELISA^PLUS Kit (Roche, Indianapolis, IN) was used to detect the amount of cytoplasmic histone-associated DNA fragments according to the manufacturer’s instructions and expressed relative to vehicle-treated cells (set equal to 1).
as §1

[4] = tested on: PARP cleavage (c-PARP) in MIA PaCa-2 cells; test: Western blot for PARP cleavage (c-PARP); type: cell-based, human; conditions: MIA PaCa-2, TUDCA 200 μM with PA 30 μM, 24 h
Protocol: as §2, §1

MIA PaCa-2 cells = test: Apoptosis, Cell Death Detection ELISA (cytoplasmic histone-associated DNA fragments); type: cell-based, human; conditions: MIA PaCa-2, TUDCA 200 μM with PA 30 μM, 24 h
Protocol: as §2

PANC-1 cells = test: as above; type: cell-based, human; conditions: PANC-1, TUDCA 200 μM with PA 30 μM, 24 h
Protocol: as §2

[5] = tested on: advanced pancreatic cancer; conditions: cited from earlier work

C[C@H](CCC(=O)NCCS(=O)(=O)O)[C@H]1CC[C@H]2[C@@H]3[C@@H](O)C[C@@H]4C[C@H](O)CC[C@]4(C)[C@H]3CC[C@]12C [TUDCA, tauroursodeoxycholic acid, reference compound]
Effect of TUDCA on PA-induced ATF4 and CHOP [1]: blocked the induction of ATF4 and CHOP
Effect of TUDCA on PA-induced ATF4 and CHOP [2]: blocked the induction of ATF4 and CHOP
Effect of TUDCA on PA-associated c-PARP expression [3]: blocked the enormous increase in the expression of c-PARP
Effect of TUDCA on PA-associated c-PARP expression [4]: blocked the enormous increase in the expression of c-PARP
Effect of TUDCA on PA-associated nuclear DNA fragmentation (MIA PaCa-2 cells): rescued
Effect of TUDCA on PA-associated nuclear DNA fragmentation (PANC-1 cells): rescued

Nc1ccn([C@@H]2O[C@H](CO)[C@@H](O)C2(F)F)c(=O)n1 [Gemcitabine]
Response rate ([5]; advanced pancreatic cancer): less than 20%
Median survival time ([5]; pancreatic cancer): 5 months
Tumor response rate ([5]; pancreatic cancer): 12%
